In patent publication US10681909B2, “Herbicidal triazoles” (FMC Corporation, priority 2014, dated 2020):

Experiments:
crabgrass, large [1] = assay: Test A postemergence; type: in vivo, Digitaria sanguinalis; settings: 0 to 100 scale (0 no effect, 100 complete control), approx. 10 d
Excerpt: (§1) Seeds of plant species selected from barnyardgrass (Echinochloa crus-galli), crabgrass, large (large crabgrass, Digitaria sanguinalis), kochia (Kochia scoparia), ragweed (common ragweed, Ambrosia elatior), foxtail, giant (giant foxtail, Setaria faberii), morningglory (Ipomoea spp.), pigweed (Amaranthus retroflexus), velvetleaf (Abutilon theophrasti), ryegrass, Italian (Italian ryegrass, Lolium multiflorum), wheat (Triticum aestivum), and corn (Zea mays) were planted into a blend of loam soil and sand and treated preemergence with a directed soil spray using test chemicals formulated in a non-phytotoxic solvent mixture which included a surfactant. At the same time, plants selected from these crop and weed species and also blackgrass (Alopecurus myosuroides), and galium (catchweed bedstraw, Galium aparine), were planted in pots containing the same blend of loam soil and sand and treated with postemergence applications of test chemicals formulated in the same manner. Plants ranged in height from 2 to 10 cm and were in the one- to two-leaf stage for the postemergence treatment. […] A dash (-) response means no test result.

morningglory [2] = assay: Test A preemergence; type: in vivo, Ipomoea spp.; settings: 0 to 100 scale (0 no effect, 100 complete control)
Excerpt: as §1

corn [3] = assay: Test A postemergence; type: in vivo, Zea mays; settings: 0 to 100 scale (0 no effect, 100 complete control), approx. 10 d
In short: (§2)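 Pre- and postemergence spray tests in a loam soil–sand mixture: seeded soil received a directed spray, while established seedlings 2–10 cm high at the one- to two-leaf stage were treated over the top. Compounds were carried in non-phytotoxic solvent with surfactant.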

crabgrass, large [4] = assay: Test A preemergence; type: in vivo, Digitaria sanguinalis; settings: 0 to 100 scale (0 no effect, 100 complete control)
Excerpt: as §1

sedge, umbrella = assay: Test B flooded paddy test; type: in vivo, Cyperus difformis; settings: 125 g ai/ha, applied to paddy water at 2-leaf stage, visual rating after 13 to 15 d, scale 0 (no effect) to 100 (complete control)
Excerpt: (§3) At time of treatment, test pots were flooded to 3 cm above the soil surface, treated by application of test compounds directly to the paddy water, and then maintained at that water depth for the duration of the test. Treated plants and controls were maintained in a greenhouse for 13 to 15 d, after which time all species were compared to controls and visually evaluated. […] A dash (-) response means no test result.

wheat [5] = assay: Test A preemergence; type: in vivo, Triticum aestivum; settings: 0 to 100 scale (0 no effect, 100 complete control)
Excerpt: as §1

barnyardgrass [6] = assay: Test A postemergence; type: in vivo, Echinochloa crus-galli; settings: 0 to 100 scale (0 no effect, 100 complete control), approx. 10 d
In short: as §2

ducksalad = assay: Test B flooded paddy test; type: in vivo, Heteranthera limosa; settings: 125 g ai/ha, applied to paddy water at 2-leaf stage, visual rating after 13 to 15 d, scale 0 (no effect) to 100 (complete control)
Excerpt: as §3

foxtail, giant [7] = assay: Test A postemergence; type: in vivo, Setaria faberii; settings: 0 to 100 scale (0 no effect, 100 complete control), approx. 10 d
In short: as §2

corn [8] = assay: Test A preemergence; type: in vivo, Zea mays; settings: 0 to 100 scale (0 no effect, 100 complete control)
Excerpt: as §1

velvetleaf [9] = assay: Test A preemergence; type: in vivo, Abutilon theophrasti; settings: 0 to 100 scale (0 no effect, 100 complete control)
Excerpt: as §1

pigweed [10] = assay: Test A preemergence; type: in vivo, Amaranthus retroflexus; settings: 0 to 100 scale (0 no effect, 100 complete control)
In short: as §2

rice = assay: Test B flooded paddy test; type: in vivo, Oryza sativa; settings: 125 g ai/ha, applied to paddy water at 2-leaf stage, visual rating after 13 to 15 d, scale 0 (no effect) to 100 (complete control)
Excerpt: as §3

pigweed [11] = assay: Test A postemergence; type: in vivo, Amaranthus retroflexus; settings: 0 to 100 scale (0 no effect, 100 complete control), approx. 10 d
In short: as §2

barnyardgrass [12] = assay: Test B flooded paddy test; type: in vivo, Echinochloa crus-galli; settings: 125 g ai/ha, applied to paddy water at 2-leaf stage, visual rating after 13 to 15 d, scale 0 (no effect) to 100 (complete control)
Excerpt: as §3

wheat [13] = assay: Test A postemergence; type: in vivo, Triticum aestivum; settings: 0 to 100 scale (0 no effect, 100 complete control), approx. 10 d
In short: as §2

morningglory [14] = assay: Test A postemergence; type: in vivo, Ipomoea spp.; settings: 0 to 100 scale (0 no effect, 100 complete control), approx. 10 d
Excerpt: as §1

barnyardgrass [15] = assay: Test A preemergence; type: in vivo, Echinochloa crus-galli; settings: 0 to 100 scale (0 no effect, 100 complete control)
In short: as §2

foxtail, giant [16] = assay: Test A preemergence; type: in vivo, Setaria faberii; settings: 0 to 100 scale (0 no effect, 100 complete control)
In short: as §2

velvetleaf [17] = assay: Test A postemergence; type: in vivo, Abutilon theophrasti; settings: 0 to 100 scale (0 no effect, 100 complete control), approx. 10 d
Excerpt: as §1

Structure (SMILES)	Plant response rating, Crabgrass, Large (crabgrass, large [1]; 125 g ai/ha)	Plant response rating, Crabgrass, Large (crabgrass, large [1]; 500 g ai/ha)	Plant response rating, Morningglory (morningglory [2]; 125 g ai/ha)	Plant response rating, Morningglory (morningglory [2]; 500 g ai/ha, approx. 10 d)	Plant response rating, Corn (corn [3]; 125 g ai/ha)	Plant response rating, Corn (corn [3]; 500 g ai/ha)	Plant response rating, Crabgrass, Large (crabgrass, large [4]; 125 g ai/ha)	Plant response rating, Crabgrass, Large (crabgrass, large [4]; 500 g ai/ha, approx. 10 d)	Plant response rating, Sedge, Umbrella, Flood (sedge, umbrella)	Plant response rating, Wheat (wheat [5]; 125 g ai/ha)	Plant response rating, Wheat (wheat [5]; 500 g ai/ha, approx. 10 d)	Plant response rating, Barnyardgrass (barnyardgrass [6]; 125 g ai/ha)	Plant response rating, Barnyardgrass (barnyardgrass [6]; 500 g ai/ha)	Plant response rating, Ducksalad, Flood (ducksalad)	Plant response rating, Foxtail, Giant (foxtail, giant [7]; 125 g ai/ha)	Plant response rating, Foxtail, Giant (foxtail, giant [7]; 500 g ai/ha)	Plant response rating, Corn (corn [8]; 125 g ai/ha)	Plant response rating, Corn (corn [8]; 500 g ai/ha, approx. 10 d)	Plant response rating, Velvetleaf (velvetleaf [9]; 125 g ai/ha)	Plant response rating, Velvetleaf (velvetleaf [9]; 500 g ai/ha, approx. 10 d)	also measured
CCn1nc(-c2ccc(F)cc2)nc1Cc1ccnc(C(F)(F)F)c1 [Compound 18]	60	90	10	40	30	40	90	100	70	0	0	30	60	70	50	90	0	0	10	70	Plant response rating, Pigweed (pigweed [10]; 125 g ai/ha): 100; Plant response rating, Pigweed (pigweed [10]; 500 g ai/ha, approx. 10 d): 100; Plant response rating, Rice, Flood (rice): 0; Plant response rating, Pigweed (pigweed [11]; 125 g ai/ha): 100; Plant response rating, Pigweed (pigweed [11]; 500 g ai/ha): 100; Plant response rating, Barnyardgrass, Flood (barnyardgrass [12]): 0; Plant response rating, Wheat (wheat [13]; 125 g ai/ha): 20; Plant response rating, Wheat (wheat [13]; 500 g ai/ha): 30; Plant response rating, Morningglory (morningglory [14]; 125 g ai/ha): 50; Plant response rating, Morningglory (morningglory [14]; 500 g ai/ha): 100; Plant response rating, Barnyardgrass (barnyardgrass [15]; 125 g ai/ha): 10; Plant response rating, Barnyardgrass (barnyardgrass [15]; 500 g ai/ha, approx. 10 d): 60; Plant response rating, Foxtail, Giant (foxtail, giant [16]; 125 g ai/ha): 90; Plant response rating, Foxtail, Giant (foxtail, giant [16]; 500 g ai/ha, approx. 10 d): 100; Plant response rating, Velvetleaf (velvetleaf [17]; 125 g ai/ha): 30; Plant response rating, Velvetleaf (velvetleaf [17]; 500 g ai/ha): 80
CCCn1nc(-c2ccc(F)cc2)nc1C(=O)c1ccnc(C(F)(F)F)c1 [Compound 20]	20	10	0	20	20	20	20	100	0	0	20	0	20	0	10	10	0	0	0	0	Plant response rating, Pigweed (pigweed [10]; 125 g ai/ha): 20; Plant response rating, Pigweed (pigweed [10]; 500 g ai/ha, approx. 10 d): 90; Plant response rating, Rice, Flood (rice): 0; Plant response rating, Pigweed (pigweed [11]; 125 g ai/ha): 40; Plant response rating, Pigweed (pigweed [11]; 500 g ai/ha): 90; Plant response rating, Barnyardgrass, Flood (barnyardgrass [12]): 0; Plant response rating, Wheat (wheat [13]; 125 g ai/ha): 20; Plant response rating, Wheat (wheat [13]; 500 g ai/ha): 30; Plant response rating, Morningglory (morningglory [14]; 125 g ai/ha): 10; Plant response rating, Morningglory (morningglory [14]; 500 g ai/ha): 10; Plant response rating, Barnyardgrass (barnyardgrass [15]; 125 g ai/ha): 0; Plant response rating, Barnyardgrass (barnyardgrass [15]; 500 g ai/ha, approx. 10 d): 80; Plant response rating, Foxtail, Giant (foxtail, giant [16]; 125 g ai/ha): 80; Plant response rating, Foxtail, Giant (foxtail, giant [16]; 500 g ai/ha, approx. 10 d): 90; Plant response rating, Velvetleaf (velvetleaf [17]; 125 g ai/ha): 0; Plant response rating, Velvetleaf (velvetleaf [17]; 500 g ai/ha): 40
